The structures appear in SMILES notation. Active and inactive are the calls of the source. The rule behind the calls is not given here.

In the test the target is Bcl-2-related protein A1 (Mus musculus) (UniProt Q07440). The test can be described thus: off-target activity on mouse Bfl-1 – biochemical, counter-screen for UBC13 polyubiquitination inhibitor project, SAR follow-up (AID 504685). Conditions: Bfl-1 counterscreen for UBC13 inhibitors. In general terms: A counterscreen serves to expose hits that act by an unwanted route or on another target.
As to `CCN(Cc1ccccc1)S(=O)(=O)c1ccc(C(=O)N(CCCN(C)C)c2nc3cc(C)cc(C)c3s2)cc1`, the IC50 is > 100 µM (inactive).
To `Cc1cc(C)c2sc(N(CCCN(C)C)C(=O)c3ccc(S(=O)(=O)N(C)Cc4ccccc4)cc3)nc2c1` belongs > 100 µM (inactive).
For the compound `CN(C)CCCN(C(=O)c1ccc(S(=O)(=O)N2CCCCC2)cc1)c1nc2cc3c(cc2s1)OCO3`, the IC50 is > 100 µM (inactive).
As for `Cc1cccc(OCC(O)CN2CCN(CCN3C(=O)c4cccc5cccc(c45)C3=O)CC2)c1C` (centres undefined), the IC50 was > 100 µM (inactive).
In the case of `N#Cc1ccccc1Cn1c(=O)n(CCCC(=O)NC2CCN(Cc3ccccc3)CC2)c(=O)c2ccccc21` it was > 100 µM (inactive).
`COc1ccc(C)c2sc(N(CCCN(C)C)C(=O)c3ccc(S(=O)(=O)N(C)C)cc3)nc12`: the IC50 is > 100 µM (inactive).
As for `COc1ccc(OC)c2sc(N(CCCN(C)C)C(=O)c3ccc(S(=O)(=O)N4CCc5ccccc5C4)cc3)nc12`, the 50% inhibitory concentration (IC50) is 12 µM.
Turning to `COc1ccc2sc(N(CCCN(C)C)C(=O)c3ccc(S(=O)(=O)N(C)Cc4ccccc4)cc3)nc2c1`, the IC50 was 79.4 µM.
To `O=C1c2cccc3cccc(c23)C(=O)N1CCN1CCN(CC(O)COCc2ccc(Cl)cc2)CC1` (centres undefined) belongs > 100 µM (inactive); to `O=C(C1COc2ccccc2O1)N1CCN(CCN2C(=O)c3cccc4cccc(c34)C2=O)CC1` (centres undefined), > 100 µM (inactive).
In the case of `Cc1ccc2nc(N(CCCN(C)C)C(=O)c3ccc4c(c3)CCCC4)sc2c1` it was > 100 µM (inactive); in that of `O=C(CCCCCN1C(=O)c2ccccc2C1=O)Nc1ccc(S(=O)(=O)Nc2ncccn2)cc1`, > 100 µM (inactive); in that of `COc1ccccc1NC(=S)NC(=O)CCCCCN1C(=O)c2ccccc2C1=O`, > 100 µM (inactive).
To `C=CCc1ccccc1OCC(O)CN1CCN(CCN2C(=O)c3cccc4cccc(c34)C2=O)CC1` (centres undefined) belongs > 100 µM (inactive); to `CC1(C)Cc2c(sc(NC(=O)COc3ccc(Cl)cc3Cl)c2C(N)=O)C(C)(C)N1`, > 100 µM (inactive); to `CC(=O)c1ccccc1OCC(O)CN1CCN(CCN2C(=O)c3cccc4cccc(c34)C2=O)CC1` (centres undefined), 93.1 µM.
Take `CCOc1ccc(NC(=O)Cn2c(=O)n(CCCC(=O)NC3CCN(Cc4ccccc4)CC3)c(=O)c3ccccc32)cc1`: the IC50 was > 100 µM (inactive).
To `O=C(C1CCN(c2ncnc3c2nc2n3CCCCC2)CC1)N1CCN(c2ccccc2)CC1` belongs > 100 µM (inactive); to `CCCN1CCN(C(=O)C2CCN(c3ncnc4c3nc3n4CCCCC3)CC2)CC1`, > 100 µM (inactive); to `O=C(CCCCCN1C(=O)c2ccccc2C1=O)NCc1ccccn1`, > 100 µM (inactive).
To `Cc1ccccc1OCC(O)CN1CCN(CCN2C(=O)c3cccc4cccc(c34)C2=O)CC1` (centres undefined) belongs > 100 µM (inactive); to `O=C(C1CCN(c2ncnc3c2nc2n3CCCCC2)CC1)N1CCC(Cc2ccccc2)CC1`, > 100 µM (inactive).
In the case of `O=C(CCCCCN1C(=O)c2cccc([N+](=O)[O-])c2C1=O)NCc1ccccc1` it was > 100 µM (inactive); in that of `COc1ccc(C(=O)Nn2c(C)nc3ccccc3c2=O)cc1`, > 100 µM (inactive); in that of `NNC(=O)c1ccc(CN2C(=O)c3cccc4cccc2c34)cc1`, > 100 µM (inactive).
`O=C(CCCCCN1C(=O)c2ccccc2C1=O)NCCc1nc2ccccc2[nH]1`: the IC50 was > 100 µM (inactive).
Take `COc1cc(/C=C/c2cc[n+](C)cc2)ccc1OCC(=O)Nc1ccc(Cl)c(Cl)c1`: the IC50 is 55.3 µM.
For the compound `Cc1cc(C)c2sc(N(CCCN(C)C)C(=O)c3ccc(S(=O)(=O)N4CCc5ccccc5C4)cc3)nc2c1`, the IC50 was > 100 µM (inactive).
To `O=C(CCCCCN1C(=O)c2ccccc2C1=O)Nc1ccc(S(=O)(=O)N2CCCCC2)cc1` belongs > 100 µM (inactive); to `CC1CCCC(C)N1CCCNC(=O)C1CCCN(c2ncnc3c2nc2n3CCCCC2)C1` (centres undefined), > 100 µM (inactive).
In the case of `CCOc1cccc2sc(N(CCCN(C)C)C(=O)c3ccc(S(=O)(=O)N(CC)Cc4ccccc4)cc3)nc12` it was 86.6 µM.
Turning to `Cc1cccc(C)c1NC(=O)Cn1c(=O)n(CCCC(=O)NC2CCN(Cc3ccccc3)CC2)c(=O)c2ccccc21`, the IC50 was > 100 µM (inactive).
Regarding `CCOC(=O)c1c(NC(=O)COc2ccccc2C#N)sc2c1CC(C)(C)NC2(C)C`, the IC50 is > 100 µM (inactive).
For the compound `Cc1ccc(OCC(O)CN2CCN(CCN3C(=O)c4cccc5cccc(c45)C3=O)CC2)c(C)c1` (centres undefined), the IC50 was 97 µM.
Take `O=C(NCCCN1CCCCC1)C1CCN(c2ncnc3c2nc2n3CCCCC2)CC1`: the IC50 was > 100 µM (inactive).
In the case of `O=C(CCCCCN1C(=O)c2cccc3cccc(c23)C1=O)NCCO` it was > 100 µM (inactive); in that of `CCOc1ccc2nc(N(CCCN(C)C)C(=O)c3ccc(S(=O)(=O)N4CCc5ccccc5C4)cc3)sc2c1`, > 100 µM (inactive).
To `CCOc1cccc2sc(N(CCCN(C)C)C(=O)c3ccc(S(=O)(=O)N(C)Cc4ccccc4)cc3)nc12` belongs > 100 µM (inactive); to `O=C(C1CCN(c2ncnc3c2nc2n3CCCCC2)CC1)N1CCN(Cc2ccccc2)CC1`, > 100 µM (inactive); to `O=C(CCCCCN1C(=O)c2cccc3cccc(c23)C1=O)NCc1cccnc1`, > 100 µM (inactive).
In the case of `O=C(Nc1ccc(F)c(Cl)c1)C1CCN(c2ncnc3c2nc2n3CCCCC2)CC1` it was > 100 µM (inactive); in that of `O=C1c2cccc3cccc(c23)C(=O)N1CCN1CCN(CC(O)COc2ccc3ccccc3c2)CC1` (centres undefined), > 100 µM (inactive); in that of `CN(C)CCCN(C(=O)c1ccc(C(=O)c2ccccc2)cc1)c1nc2cc3c(cc2s1)OCO3`, > 100 µM (inactive).
As for `CCc1ccc(OCC(O)CN2CCC(CN3C(=O)c4cccc5cccc(c45)C3=O)CC2)cc1` (centres undefined), the IC50 is > 100 µM (inactive).
In the case of `O=C(c1ccc(S(=O)(=O)N2CCCC2)cc1)N1CCC(CN2C(=O)c3cccc4cccc(c34)C2=O)CC1` it was > 100 µM (inactive).
In the case of `COc1ccc(COCC(O)CN2CCC(CN3C(=O)c4cccc5cccc(c45)C3=O)CC2)cc1OC` (centres undefined) it was > 100 µM (inactive); in that of `CCCCN(CC)S(=O)(=O)c1ccc(C(=O)N(CCCN(C)C)c2nc3cc(C)cc(C)c3s2)cc1`, > 100 µM (inactive); in that of `O=C(CCCn1c(=O)c2ccccc2n(Cc2cccc(F)c2)c1=O)NC1CCN(Cc2ccccc2)CC1`, > 100 µM (inactive).
To `COc1cccc2sc(N(CCCN(C)C)C(=O)c3ccc(S(=O)(=O)N4CCc5ccccc5C4)cc3)nc12` belongs 24.1 µM; to `Cc1c(NC(=O)CCCN2C(=O)c3cccc4cccc(c34)C2=O)c(=O)n(-c2ccccc2)n1C`, > 100 µM (inactive).
As for `O=C1c2cccc3cccc(c23)N1Cc1ccc(F)cc1`, the IC50 was > 100 µM (inactive).
To `Cc1ccc(NC(=O)C2CCN(c3ncnc4c3nc3n4CCCCC3)CC2)cc1Cl` belongs > 100 µM (inactive).
On to `O=C(CCCCCN1C(=O)c2ccccc2C1=O)Nc1nc(C2CC2)cs1`, for which the IC50 is > 100 µM (inactive).
For the compound `COc1ccc(CCNC(=O)CCCCCN2C(=O)c3ccccc3C2=O)cc1`, the IC50 was > 100 µM (inactive).

Usually IC50 stands for the concentration that inhibits the measured activity by half.

The record behind these values is PubChem BioAssay AID504685 (Sanford-Burnham Center for Chemical Genomics, 2011).
